Where a chain is given by its changes, count along the chain named.
Tests used:
C238A VLCAD mutant = biological target: T1, C238A VLCAD mutant (Mus musculus, UniProt P50544, C238A); assay: Hepa 1 to 6 cells expressing FLAG-tagged C238A VLCAD; format: cell-based; conditions: same experimental conditions
T1 construct: 3xFLAG (C); mutant made in house by QuikChange) Ex-Mm01013-M14; host or cells: Hepa 1 to 6 cells (mouse hepatocytes)
T1 sequence (P50544 42-656 C238A): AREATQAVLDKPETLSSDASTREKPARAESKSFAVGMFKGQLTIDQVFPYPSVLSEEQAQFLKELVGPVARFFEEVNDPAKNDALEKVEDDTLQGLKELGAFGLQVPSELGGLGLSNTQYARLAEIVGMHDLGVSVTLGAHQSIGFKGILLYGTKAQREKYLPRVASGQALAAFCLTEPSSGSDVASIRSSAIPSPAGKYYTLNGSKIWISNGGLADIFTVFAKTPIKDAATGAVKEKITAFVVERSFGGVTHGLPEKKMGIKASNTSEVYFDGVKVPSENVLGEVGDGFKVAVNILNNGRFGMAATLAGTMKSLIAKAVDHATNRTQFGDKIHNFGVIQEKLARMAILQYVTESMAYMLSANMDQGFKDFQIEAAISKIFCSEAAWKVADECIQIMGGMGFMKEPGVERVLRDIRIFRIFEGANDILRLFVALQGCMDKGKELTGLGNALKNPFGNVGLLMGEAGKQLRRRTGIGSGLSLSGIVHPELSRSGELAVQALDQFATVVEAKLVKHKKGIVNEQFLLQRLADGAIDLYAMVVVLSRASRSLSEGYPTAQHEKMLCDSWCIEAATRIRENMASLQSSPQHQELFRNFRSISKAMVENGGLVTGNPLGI
From the text: The QuikChange® Lightning Site-Directed Mutagenesis Kit (Agilent Technologies) was used to introduce single amino acid mutations in complementary DNA encoding VLCAD. A cysteine-to-alanine mutant at amino acid position 238 was generated with Ex-Mm01013-M14 (hereinafter referred to as pVLCAD-3×FLAG®), a plasmid encoding mouse VLCAD fused to three FLAG® tags in the C-terminal region of the protein (GeneCopoeia), as a template. The forward primer 5′-[…]-3′ (SEQ ID NO: 1) and the reverse primer 5′-[…] […]-3′ (SEQ ID NO: 2) were used to substitute an alanine codon for a cysteine codon in pVLCAD-3×FLAG®, thereby generating pVLCAD-C238A-3×FLAG®. The sequence of both pVLCAD-3×FLAG® and pVLCAD-C238A-3×FLAG® was verified before use in subsequent experiments.
Hepa 1 to 6 cells were grown in Dulbecco's modified Eagle's medium (DMEM) containing 10% fetal bovine serum, 2 mM glutamine, penicillin (100 U/ml), and streptomycin ([…]) at 37° C. in air with 5% CO2. Cells were plated at a density of 5×10^4 cells/cm^2 and cultured under normal conditions for 24 hours. Cells were transfected with FLAG®-tagged wild-type VLCAD or FLAG®-tagged C238A VLCAD with Lipofectamine® 2000 reagent (Life Technologies) according to the protocol provided by the manufacturer. […]

VLCAD [1] = biological target: T2, VLCAD (Mus musculus, UniProt P50544); assay: Fraction of S-nitrosylated VLCAD in liver of ob/ob mice (organomercury resin capture); format: in vivo; conditions: treated ob/ob mice
T2 sequence (P50544 42-656): T1 sequence (P50544 42-656 C238A) with A197C
From the text: These findings confirm the MS/MS analysis showing S-nitrosylation of VLCAD in wild-type and GSNO-treated mouse liver but not in PBS-treated ob/ob mouse liver (FIG. 3C). […] This substantial increase in catalytic efficiency can provide efficient removal of fatty acids in ob/ob mouse liver.

VLCAD [2] = biological target: T2, VLCAD; conditions: liver homogenates
ob/ob mice = assay: Liver and serum triglycerides and liver histology in ob/ob mice; format: in vivo, mouse
From the text: Formalin-fixed liver sections were stained with Trichrome Stain Kit (Sigma) according to the manufacturer's instructions. Triglycerides were extracted from liver according to the Folch method (Folch et al. (1957) J. Biol. Chem., 226:497-509). Serum and liver triglyceride concentrations were quantified with a triglyceride quantification kit following the manufacturer's instructions (Abcam). Leptin-deficient mice develop liver steatosis spontaneously under normal chow diet starting at 4 to 5 weeks of life that is characterized by a diminished rate of palmitate oxidation and accumulation of fat droplets in the form of triglycerides within the hepatocytes (Brix et al. (2002) Mol. Genet. Metab., 75:219-226; de Oliveira et al. (2008) J. Am. Coll. Nutr., 27:299-305). […] This significant reduction in the rate of palmitoyl-CoA oxidation indicated a deficiency in mitochondrial β-oxidation of fatty acids. […] GSNO was used to deliver nitric oxide equivalents because of the extensive use of this pharmacological agent in cellular models to modify proteins by S-nitrosylation despite limited cellular permeability (Hara et al. (2005) Nat. Cell Biol., 7:665-674; Chung et al. (2004) Science 304:1328-1331). […] Moreover, the restoration of palmitoyl-CoA oxidation in GSNO-injected ob/ob mice was associated with a significant reduction of the concentration of liver triglycerides.

wild-type VLCAD = biological target: T3, wild-type VLCAD (Mus musculus, UniProt P50544); assay: Hepa 1 to 6 cells expressing FLAG-tagged wild-type VLCAD; format: cell-based; conditions: 250 mM GSNO for 30 minutes
T3 construct: 3xFLAG (C); host or cells: Hepa 1 to 6 cells (mouse hepatocytes)
T3 sequence (P50544 42-656): T1 sequence (P50544 42-656 C238A) with A197C
Method: Hepa 1 to 6 cells were grown in Dulbecco's modified Eagle's medium (DMEM) containing 10% fetal bovine serum, 2 mM glutamine, penicillin (100 U/ml), and streptomycin ([…]) at 37° C. in air with 5% CO2. Cells were plated at a density of 5×10^4 cells/cm^2 and cultured under normal conditions for 24 hours. Cells were transfected with FLAG®-tagged wild-type VLCAD or FLAG®-tagged C238A VLCAD with Lipofectamine® 2000 reagent (Life Technologies) according to the protocol provided by the manufacturer. Forty-eight hours after transfection, the growth medium was replaced with serum-free DMEM, and […] freshly prepared GSNO was added for 30 minutes, after which the cells were extensively washed with PBS. Cell lysates were obtained immediately or 60, 120, and 240 minutes after the removal of GSNO. The samples were protected from UV light exposure. Lysates were assayed for protein concentration, and equal amounts of protein per sample were used for organic mercury-assisted capture.
Additional evidence for the functional consequences of S-nitrosylation of VLCAD was obtained in mouse hepatocytes transiently expressing wild-type VLCAD or a point mutant that could not be S-nitrosylated (C238A). […] Upon removal of GSNO from the media and extensive washing, both the abundance of S-nitrosylated VLCAD and the enzymatic-specific activity declined over time (FIGS. 4A and 4B).

VLCAD [3] = biological target: T2, VLCAD

N[C@@H](CCC(=O)N[C@@H](CSN=O)C(=O)NCC(=O)O)C(=O)O [GSNO, S-nitrosoglutathione]
S-nitrosylation of C238A VLCAD (C238A VLCAD mutant): not S-nitrosylated
basal activity of C238A VLCAD (C238A VLCAD mutant): did not change
fraction of VLCAD molecules in liver S-nitrosylated (VLCAD [1]): 25±3%
apparent KM of PBS-injected ob/ob mice relative to GSNO-injected ob/ob mice (VLCAD [2]): more than fivefold higher
Vmax of VLCAD (VLCAD [2]; vs wild-type and PBS-injected ob/ob mice): similar
fat deposits in liver slices (histology) (ob/ob mice; vs PBS-injected): fewer fat deposits
liver triglyceride concentration (ob/ob mice; vs PBS-injected): significantly lowered
serum triglyceride concentrations (ob/ob mice; vs wild-type and PBS-treated): similar
S-nitrosylated fraction of wild-type VLCAD (wild-type VLCAD): 27±3%
VLCAD-specific activity (wild-type VLCAD): fivefold increase
S-nitrosylation of VLCAD (VLCAD [3]; eNOS-/- liver homogenates treated ex vivo): readily modified ex vivo at cysteine residue Cys238
KM for VLCAD enzymatic activity vs untreated homogenate (VLCAD [3]; eNOS-/- liver homogenates treated ex vivo (5 μM, 30 minutes)): increased five-fold

From patent US10137103B2, “Compositions and methods for the treatment of fatty acid metabolism disorders” (The Children's Hospital of Philadelphia, priority 2015, dated 2018)
